Assay results as given in patent publication US20050026958A1, “Methods of therapeutic treatment using amounts of retinoid components” (Allergan, Inc., priority 2003, published 2005).

What was measured:
RXR retinoid receptors = settings: cited from earlier work
[1] = tested on: patients with severe nodulocystic acne; experiment: Multicenter double-blind randomized placebo-controlled study of oral tazarotene in severe nodulocystic acne (Example 7); assay type: in vivo, human
Source text: A multicenter, double-blind, randomized, placebo-controlled parallel-group study is undertaken to determine the efficacy of orally administered tazarotene in treating severe nodulocystic acne.
In addition, washout periods for other medications for this study are: 1 week for vitamin A supplements >5000 IU; 2 weeks for topical anti-acne medications (e.g., retinoids, azelaic acid, benzoyl peroxide); 2 weeks for topical or systemic antibiotic therapy that may alter the course of acne; and 6 months for systemic retinoids.
Patients are randomized to receive placebo or oral tazarotene (0.75, 1.5, 3, or 6 mg), in a 1:1:1:1:1 ratio once daily for 24 weeks. After this, the patients are followed without treatment for an additional 12 weeks. Patients discontinuing from the treatment period due to adverse effects or lack of efficacy are eligible for entry into the post-treatment phase.
In the study, overall acne severity is rated as: none (no inflammatory acne lesions); mild (few to several papules or pustules, no nodulocystic lesions); moderate (several to many papules or pustules, few to several nodulocystic lesions); and severe (numerous or extensive papules or pustules, many, for example, at least about 5 or at least about 10, nodulocystic lesions).
Treatment success is defined as at least moderate (about 50%) improvement on the following 7-point global response scale: • 0=completely cleared • 1=almost cleared (about 90% improvement) • 2=marked response (about 75% improvement) • 3=moderate response (about 50% improvement) • 4=slight response (about 25% improvement) • 5=condition unchanged • 6=condition worsened
In this study, facial nodulocystic lesion count includes lesions greater than 5 mm in size. Facial papular/pustular lesion count includes lesions less than or equal to 5 mm in size. Facial non-inflammatory lesion count includes open and closed comedones.
(§1) Sebum output is assessed every 4 weeks at selected centers using the Sebutape® patches, sold by Cuderm Corporation. Urinalysis, chemistry, and hematology values are monitored. Bone formation and resorption assessments (serum bone alkaline phosphatase and serum amino terminal telopeptides, respectively) at selected centers are monitored.
Bone mineral density of spine and proximal femur at selected centers is monitored. Ligament calcification or osteophyte formation (lateral X-ray of the cervical and thoracic spine, and ankle calcaneous) is monitored. Epiphyseal growth plate closure (internal oblique X-ray of the ankle in patients less than or equal to 21 years old) is monitored.

sebum secretion [2] = experiment: Sebum output by Sebutape patches in the Example 7 study; assay type: in vivo, human; settings: oral tazarotene 0.75 to 6 mg once daily, maximum of 86 patients
Description: as §1

[3] = tested on: patients having nodulocystic acne; experiment: Two placebo-controlled dose-ranging safety studies of oral tazarotene in nodulocystic acne (Example 4); assay type: in vivo, human; settings: for joint disorder during treatment period: placebo 0%; for arthralgia during treatment period: placebo 6%; for myalgia during treatment period: placebo 9%; for asthenia during treatment period: placebo 13%; for dry skin during treatment period: placebo 19%; for headache during treatment period: placebo 28%; for cheilitis during treatment period: placebo 31%; for emotional lability (all cases mild): placebo 4%
Description: Two placebo-controlled dose-ranging studies are conducted to evaluate the safety of oral tazarotene in patients having nodulocystic acne. In the first study, patients receive orally administered tazarotene at daily doses of 0.4 mg to 2.8 mg in 96 (71+25) patients (12 weeks treatment plus 12 weeks post-treatment). In the second study, daily doses of 0.75 mg to 6 mg tazarotene are administered to 181 patients (24 weeks treatment plus 12 weeks post-treatment).

patients = experiment: Two placebo-controlled 24-week safety studies of oral tazarotene plus 16- to 24-week dose-response evaluations (Example 3); assay type: in vivo, human; settings: 4.5 mg orally once daily vs placebo
Description: Two multicenter, double-blind, randomized, placebo-controlled 24-week studies of identical design are conducted to evaluate the safety of oral tazarotene. In addition, 16- to 24-week dose-response evaluations are performed.
In the two safety trials, the incidence of adverse side effects with a 4.5 mg dose administered orally once daily is compared to the incidence of the same side effects with a placebo. […] The majority of these were mild in severity and typical of adverse effects associated with oral retinoids.

patients (acne) = experiment: Adverse event monitoring in studies of orally administered tazarotene for acne (Table 2); assay type: in vivo, human; settings: oral tazarotene for acne, combined Studies 1 and 2 (N = 223)
Description: Studies are conducted on orally administered tazarotene for the treatment of acne. Adverse events (side effects) are monitored.

patients (psoriasis) = experiment: Adverse event monitoring in Phase 3 studies of orally administered tazarotene for psoriasis (Table 1); assay type: in vivo, human; settings: Taz 4.5 mg, combined Studies 1 and 2 (N = 348)
Description: A series of Phase 3 studies are conducted on orally administered tazarotene for the treatment of psoriasis. Adverse events (side effects) are monitored. In addition, published data for acitretin's side effects are also considered.

[4] = Food effect (high-fat meal vs fast) on pharmacokinetics of tazarotenic acid after 6.3 mg oral tazarotene; assay type: in vivo, human; settings: healthy subjects
sebum secretion [5] = settings: published reports (Geiger); cited from earlier work
[6] = oral tazarotene 0.4 to 6 mg daily

CC1(C)CC[S+]([O-])c2ccc(C#Cc3ccc(C(=O)O)cn3)cc21 (centres unmarked) [sulfoxide derivative]
activation of RXR retinoid receptors (RXR retinoid receptors): does not activate

CCOC(=O)c1ccc(C#Cc2ccc3c(c2)C(C)(C)CCS3)nc1 [tazarotene]
patients withdrawing due to adverse events in treatment period ([1]; 0.75 mg group (2/35), placebo 0%): 6% | patients withdrawing due to adverse events in treatment period ([1]; 1.5 mg group (0/37)): 0% | incidence of treatment success (≧50% global improvement) vs placebo ([1]; 3 mg and 6 mg, week 24 and throughout post-treatment phase (p≦0.05)): significantly higher incidence of treatment success | patients withdrawing due to adverse events in treatment period ([1]; 3 mg group (2/37)): 5% | patients withdrawing due to adverse events in treatment period ([1]; 6 mg group (1/36)): 3% | bone formation and resorption (serum bone alkaline phosphatase, serum amino terminal telopeptides) ([1]; all treatment groups): do not appear to be altered | changes in urinalysis, chemistry, or hematology measures (incl. liver function tests, triglycerides, total cholesterol, HDL cholesterol) ([1]; all treatment groups): None of the treatment groups show any consistent clinically significant changes | ligament calcification, osteophyte formation, or changes in bone density ([1]; all treatment groups): None of the treatment groups show any clinically significant | effect on sebum secretion relative to placebo (Sebutape method) (sebum secretion [2]): does not substantially reduce sebum secretion relative to placebo | joint disorder during treatment period ([3]; 2.8 mg, n=11): 27% | arthralgia during treatment period ([3]; 2.8 mg, n=11): 9% | myalgia during treatment period ([3]; 2.8 mg, n=11): 0% | asthenia during treatment period ([3]; 2.8 mg, n=11): 0% | dry skin during treatment period ([3]; 2.8 mg, n=11): 18% | headache during treatment period ([3]; 2.8 mg, n=11): 9% | cheilitis during treatment period ([3]; 2.8 mg, n=11): 64% | emotional lability (all cases mild) ([3]; 3 mg group (1 patient)): 3% | depression ([3]; 3 mg group (3 patients: 2 mild, 1 severe), placebo 2%): 8% | joint disorder during treatment period ([3]; 3 mg, n=37): 14% | arthralgia during treatment period ([3]; 3 mg, n=37): 8% | myalgia during treatment period ([3]; 3 mg, n=37): 16% | asthenia during treatment period ([3]; 3 mg, n=37): 19% | dry skin during treatment period ([3]; 3 mg, n=37): 35% | headache during treatment period ([3]; 3 mg, n=37): 19% | cheilitis during treatment period ([3]; 3 mg, n=37): 78% | emotional lability (all cases mild) ([3]; 6 mg group (5 patients)): 14% | joint disorder during treatment period ([3]; 6 mg, n=36): 19% | arthralgia during treatment period ([3]; 6 mg, n=36): 28% | myalgia during treatment period ([3]; 6 mg, n=36): 25% | asthenia during treatment period ([3]; 6 mg, n=36): 19% | dry skin during treatment period ([3]; 6 mg, n=36): 50% | headache during treatment period ([3]; 6 mg, n=36): 36% | cheilitis during treatment period ([3]; 6 mg, n=36): 94% | severe dry skin ([3]; all groups): No patient has severe dry skin | changes in urinalysis, chemistry, or hematology measures (incl. liver function tests, triglycerides, total cholesterol, HDL cholesterol) [3, 6]: no consistent dose-related clinically significant changes | ligament calcification, osteophyte formation, changes in serum bone alkaline phosphatase, serum amino terminal telopeptides, bone density [3, 6]: not associated with any clinically significant | incidence of ocular, auditory, or thyroid problems (patients): no statistically significant between-group differences | Conjunctivitis (patients (acne)): 0 (0.0) number (%) of patients | Irritation of eyes (patients (acne)): 0 (0.0) number (%) of patients | Atrophy of skin (patients (psoriasis)): 0 (0.0) number (%) of patients | Hyperesthesia (patients (psoriasis)): 0 (0.0) number (%) of patients | Paresthesia (patients (psoriasis)): 7 (2.0) number (%) of patients

CC1(C)CCSc2ccc(C#Cc3ccc(C(=O)O)cn3)cc21 [tazarotenic acid]
effect of high-fat meal on bioavailability or pharmacokinetics of tazarotenic acid ([4]; 6.3 mg oral tazarotene, single and multiple dose): does not substantially affect | average ratio of Cmax values (test/reference) ([4]; Day 0, 6.3 mg oral tazarotene after high fat breakfast vs 8-10 hour fast): 1.00 | activation of RXR retinoid receptors (RXR retinoid receptors): does not activate

CC1=C(/C=C/C(C)=C/C=C/C(C)=C\C(=O)O)C(C)(C)CCC1 [Isotretinoin, isotretinoin]
inhibitory effect on the rate of sebum secretion (sebum secretion [5]): about 90%
